Results as given in patent publication US10597388B2, “Pyridazinone herbicides” (FMC CORPORATION, priority 2014, dated 2020).

Tests used:
Assay in all cases: Test E greenhouse herbicide test, pre- and postemergence
Format in all cases: in vivo
Conditions in all cases: Preemergence
[1] = test system: Italian ryegrass (Lolium multiflorum)
Procedure, shortened: (§1)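 Visual rating vs untreated controls, 0 = no effect, 100 = complete control, after 14–21 d greenhouse. Pre: seeded silt loam treated with surfactant-containing solvent formulation. Post: 1–4-leaf plants (2–18 cm) in peat/vermiculite medium.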

[2] = test system: barnyardgrass (Echinochloa crus-galli)
Procedure, shortened: as §1

corn (Zea mays) = test system: corn (Zea mays)
Procedure, shortened: as §1

[3] = test system: crabgrass, Brazilian (Brazilian crabgrass, Digitaria horizontalis)
Procedure, shortened: as §1

[4] = test system: crabgrass, large (large crabgrass, Digitaria sanguinalis)
Procedure, shortened: as §1

[5] = test system: foxtail, green (green foxtail, Setaria viridis)
Procedure, shortened: as §1

[6] = test system: goosegrass (Eleusine indica)
Procedure, shortened: as §1

[7] = test system: johnsongrass (Sorghum halepense)
Procedure, shortened: as §1

kochia (Kochia scoparia) = test system: kochia (Kochia scoparia)
Procedure, shortened: as §1

[8] = test system: nightshade (eastern black nightshade, Solanum ptycanthum)
Procedure, shortened: as §1

[9] = test system: nutsedge, yellow (yellow nutsedge, Cyperus esculentus)
Procedure, shortened: as §1

[10] = test system: pigweed, palmer (palmer pigweed, Amaranthus palmeri)
Procedure, shortened: as §1

[11] = test system: ragweed (common ragweed, Ambrosia elatior)
Procedure, shortened: as §1

[12] = test system: sandbur (southem sandbur, Cenchrus echinatus)
Procedure, shortened: as §1

[13] = test system: surinam grass (Brachiaria decumbens)
Procedure, shortened: as §1

[14] = test system: velvetleaf (Abutilon theophrasti)
Procedure, shortened: as §1

[15] = test system: waterhemp (common waterhemp, Amaranthus rudis)
Procedure, shortened: as §1

[16] = 62 g ai/ha, scale 0 to 100 (0 no effect, 100 complete control)
[17] = 125 g ai/ha, scale 0 to 100 (0 no effect, 100 complete control)
[18] = 31 g ai/ha, scale 0 to 100, 0 no effect, 100 complete control
[19] = 250 g ai/ha, visual, scale 0 no effect to 100 complete control
[20] = 125 g ai/ha, visual, scale 0 no effect to 100 complete control

CC(=O)Oc1c(C)nn(C)c(=O)c1-c1c(C)sc2c(C)cc(C)cc12 [Compound 27]
85: Plant response rating, Goosegrass [6, 19] | Plant response rating, Pigweed, Palmer [10, 17] | Plant response rating, Pigweed, Palmer [10, 19] | Plant response rating, Surinam Grass [13, 18] | Plant response rating, Waterhemp [15, 17]
90: Plant response rating, Crabgrass, Large [4, 19] | Plant response rating, Nightshade [8, 18] | Plant response rating, Sandbur [12, 17] | Plant response rating, Sandbur [12, 19] | Plant response rating, Waterhemp [15, 16]
60: Plant response rating, Pigweed, Palmer [10, 16]
50: Plant response rating, Barnyardgrass [2, 16] | Plant response rating, Crabgrass, Large [4, 16] | Plant response rating, Crabgrass, Large [4, 20] | Plant response rating, Velvetleaf [14, 18]
10: Plant response rating, Nutsedge, Yellow [9, 18]
25: Plant response rating, Kochia (kochia (Kochia scoparia); [16])
0: Plant response rating, Corn (corn (Zea mays); [16]) | Plant response rating, Corn (corn (Zea mays); [18]) | Plant response rating, Corn (corn (Zea mays); [20]) | Plant response rating, Corn (corn (Zea mays); [19]) | Plant response rating, Kochia (kochia (Kochia scoparia); [18])
35: Plant response rating, Crabgrass, Large [4, 18] | Plant response rating, Goosegrass [6, 18]
75: Plant response rating, Foxtail, Green [5, 18] | Plant response rating, Goosegrass [6, 16] | Plant response rating, Johnsongrass [7, 16] | Plant response rating, Johnsongrass [7, 20]
40: Plant response rating, Sandbur [12, 16]
15: Plant response rating, Barnyardgrass [2, 18] | Plant response rating, Nutsedge, Yellow [9, 16]
80: Plant response rating, Ryegrass, Italian [1, 18] | Plant response rating, Barnyardgrass [2, 20] | Plant response rating, Goosegrass [6, 20] | Plant response rating, Kochia (kochia (Kochia scoparia); [20]) | Plant response rating, Nutsedge, Yellow [9, 19] | Plant response rating, Velvetleaf [14, 16]
30: Plant response rating, Sandbur [12, 18]
100: Plant response rating, Ryegrass, Italian [1, 17] | Plant response rating, Ryegrass, Italian [1, 19] | Plant response rating, Foxtail, Green [5, 16] | Plant response rating, Foxtail, Green [5, 20] | Plant response rating, Foxtail, Green [5, 19] | Plant response rating, Kochia (kochia (Kochia scoparia); [19]) | Plant response rating, Nightshade [8, 16] | Plant response rating, Ragweed [11, 17] | Plant response rating, Ragweed [11, 19] | Plant response rating, Surinam Grass [13, 17] | Plant response rating, Surinam Grass [13, 19] | Plant response rating, Velvetleaf [14, 19]
98: Plant response rating, Nightshade [8, 19] | Plant response rating, Nutsedge, Yellow [9, 17]
70: Plant response rating, Crabgrass, Brazil [3, 16] | Plant response rating, Crabgrass, Brazil [3, 18] | Plant response rating, Johnsongrass [7, 18] | Plant response rating, Johnsongrass [7, 19]
95: Plant response rating, Ryegrass, Italian [1, 16] | Plant response rating, Barnyardgrass [2, 19] | Plant response rating, Crabgrass, Brazil [3, 20] | Plant response rating, Crabgrass, Brazil [3, 19] | Plant response rating, Nightshade [8, 17] | Plant response rating, Ragweed [11, 16] | Plant response rating, Ragweed [11, 18] | Plant response rating, Surinam Grass [13, 16] | Plant response rating, Velvetleaf [14, 17] | Plant response rating, Waterhemp [15, 18] | Plant response rating, Waterhemp [15, 19]
